These results are taken from the supplement of paper PMC10307832.

Common to all, as to assay: relative viability (nuclei count vs DMSO), 5 days (fraction); higher = more cells survive
Compound in the assay “CAP-232 + OSI-027”: C[C@H]([C@@H](C(=O)N)NC(=O)[C@@H]1CSSC[C@@H](C(=O)N[C@H](C(=O)N[C@@H](C(=O)N[C@H](C(=O)N1)CCCCN)CC2=CNC3=CC=CC=C32)CC4=CC=C(C=C4)O)NC(=O)[C@@H](CC5=CC=CC=C5)N)O [CAP-232] + COc1cccc2cc(-c3nc([C@H]4CC[C@H](C(=O)O)CC4)n4ncnc(N)c34)[nH]c12 [OSI-027] (partner 0.5 µM)
An outline of the steps:
(§1)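 Values are medians from duplicate plates. Each reflects relative viability, defined as the nuclei count of treated wells over that of vehicle wells. Lung cancer cell lines in 1536-well plates were pin-tool dosed one day after seeding with one drug alone or with a fixed anchor-drug dose plus five library-drug doses (not always all listed) in √10 steps, then fixed, stained and imaged at 4× after 5 days.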

Compound in the assay “CAP-232 + Pemetrexed”: C[C@H]([C@@H](C(=O)N)NC(=O)[C@@H]1CSSC[C@@H](C(=O)N[C@H](C(=O)N[C@@H](C(=O)N[C@H](C(=O)N1)CCCCN)CC2=CNC3=CC=CC=C32)CC4=CC=C(C=C4)O)NC(=O)[C@@H](CC5=CC=CC=C5)N)O [CAP-232] + Nc1nc2[nH]cc(CCc3ccc(C(=O)N[C@@H](CCC(=O)O)C(=O)O)cc3)c2c(=O)[nH]1 [Pemetrexed] (partner 0.2 µM)
The gist of the method: as §1

Compound in the assay “CAP-232 + Decitabine”: C[C@H]([C@@H](C(=O)N)NC(=O)[C@@H]1CSSC[C@@H](C(=O)N[C@H](C(=O)N[C@@H](C(=O)N[C@H](C(=O)N1)CCCCN)CC2=CNC3=CC=CC=C32)CC4=CC=C(C=C4)O)NC(=O)[C@@H](CC5=CC=CC=C5)N)O [CAP-232] + Nc1ncn([C@H]2C[C@H](O)[C@@H](CO)O2)c(=O)n1 [Decitabine] (partner 2 µM)
An outline of the steps: as §1

Compound in the assay “CAP-232 + Bortezomib”: C[C@H]([C@@H](C(=O)N)NC(=O)[C@@H]1CSSC[C@@H](C(=O)N[C@H](C(=O)N[C@@H](C(=O)N[C@H](C(=O)N1)CCCCN)CC2=CNC3=CC=CC=C32)CC4=CC=C(C=C4)O)NC(=O)[C@@H](CC5=CC=CC=C5)N)O [CAP-232] + CC(C)C[C@H](NC(=O)[C@H](Cc1ccccc1)NC(=O)c1cnccn1)B(O)O [Bortezomib] (partner 0.002 µM)
The gist of the method: as §1

Compound in the assay “CAP-232 + Crizotinib”: C[C@H]([C@@H](C(=O)N)NC(=O)[C@@H]1CSSC[C@@H](C(=O)N[C@H](C(=O)N[C@@H](C(=O)N[C@H](C(=O)N1)CCCCN)CC2=CNC3=CC=CC=C32)CC4=CC=C(C=C4)O)NC(=O)[C@@H](CC5=CC=CC=C5)N)O [CAP-232] + C[C@@H](Oc1cc(-c2cnn(C3CCNCC3)c2)cnc1N)c1c(Cl)ccc(F)c1Cl [Crizotinib] (partner 1 µM)
An outline of the steps: as §1

For the cell line NCI-H1395, the relative viability stood at 0.647 in the assay with CAP-232 + OSI-027 (first compound 0.4 µM); 0.532 with CAP-232 + OSI-027 (first compound 1.265 µM); 0.67 with CAP-232 + OSI-027 (first compound 4 µM); 0.707 with CAP-232 + OSI-027 (first compound 12.65 µM); 0.971 with CAP-232 + Pemetrexed (first compound 0.4 µM); 0.917 with CAP-232 + Pemetrexed (first compound 4 µM). Further, the relative viability came to 0.503 with CAP-232 + Pemetrexed (first compound 12.65 µM), 0.777 with CAP-232 + Decitabine (first compound 0.4 µM), 0.745 with CAP-232 + Decitabine (first compound 4 µM) and 0.537 with CAP-232 + Decitabine (first compound 12.65 µM).
In the case of NCI-H1563, the relative viability with CAP-232 + Bortezomib (first compound 0.4 µM) is 0.836; in the assay with CAP-232 + Bortezomib (first compound 1.265 µM), 0.735; with CAP-232 + Bortezomib (first compound 4 µM), 0.957; with CAP-232 + Bortezomib (first compound 12.65 µM) it was 0.687; in the assay with CAP-232 + OSI-027 (first compound 0.4 µM) it was 0.757; in the assay with CAP-232 + OSI-027 (first compound 1.265 µM) it was 0.673. The relative viability with CAP-232 + OSI-027 (first compound 4 µM) was found to be 0.647; with CAP-232 + OSI-027 (first compound 12.65 µM) it was 0.613; with CAP-232 + Crizotinib (first compound 0.4 µM), 0.965; with CAP-232 + Crizotinib (first compound 1.265 µM), 0.911; with CAP-232 + Crizotinib (first compound 4 µM), 0.835; with CAP-232 + Crizotinib (first compound 12.65 µM), 0.777. Further, the relative viability in the assay with CAP-232 + Pemetrexed (first compound 0.4 µM) was determined as 0.802; in the assay with CAP-232 + Pemetrexed (first compound 1.265 µM) it was 0.655; in the assay with CAP-232 + Pemetrexed (first compound 4 µM), 0.744; in the assay with CAP-232 + Pemetrexed (first compound 12.65 µM) it was 0.669.
For NCI-H1703, the relative viability with CAP-232 + Bortezomib (first compound 0.4 µM) was 0.251; with CAP-232 + Bortezomib (first compound 1.265 µM), 0.333; with CAP-232 + Bortezomib (first compound 4 µM), 0.226; in the assay with CAP-232 + Bortezomib (first compound 12.65 µM) it was 0.164; in the assay with CAP-232 + Crizotinib (first compound 0.4 µM), 0.788; with CAP-232 + Crizotinib (first compound 1.265 µM) it was 0.844. Also, the relative viability turned out to be 0.74 with CAP-232 + Crizotinib (first compound 4 µM) and 0.695 with CAP-232 + Crizotinib (first compound 12.65 µM).
Turning to NCI-H1793, the relative viability came to 0.282 in the assay with CAP-232 + OSI-027 (first compound 0.4 µM); 0.253 with CAP-232 + OSI-027 (first compound 1.265 µM); 0.196 with CAP-232 + OSI-027 (first compound 4 µM); 0.25 with CAP-232 + OSI-027 (first compound 12.65 µM); 1.01 in the assay with CAP-232 + Pemetrexed (first compound 0.4 µM); 0.61 with CAP-232 + Pemetrexed (first compound 1.265 µM). The relative viability with CAP-232 + Pemetrexed (first compound 4 µM) stood at 0.905; in the assay with CAP-232 + Pemetrexed (first compound 12.65 µM) it was 0.696; in the assay with CAP-232 + Decitabine (first compound 0.4 µM), 0.473; in the assay with CAP-232 + Decitabine (first compound 1.265 µM), 0.406; with CAP-232 + Decitabine (first compound 4 µM), 0.389; with CAP-232 + Decitabine (first compound 12.65 µM) it was 0.494.
Turning to NCI-H1944, the relative viability turned out to be 0.379 in the assay with CAP-232 + OSI-027 (first compound 0.4 µM); 0.388 with CAP-232 + OSI-027 (first compound 1.265 µM); 0.403 with CAP-232 + OSI-027 (first compound 4 µM); 0.392 with CAP-232 + OSI-027 (first compound 12.65 µM); 1.12 with CAP-232 + Crizotinib (first compound 0.4 µM); 1.05 with CAP-232 + Crizotinib (first compound 1.265 µM). In addition, the relative viability in the assay with CAP-232 + Crizotinib (first compound 4 µM) was determined as 1.03; in the assay with CAP-232 + Crizotinib (first compound 12.65 µM) it was 1.24; with CAP-232 + Pemetrexed (first compound 0.4 µM), 0.569; with CAP-232 + Pemetrexed (first compound 1.265 µM), 0.517; with CAP-232 + Pemetrexed (first compound 4 µM), 0.601; with CAP-232 + Pemetrexed (first compound 12.65 µM) it was 0.573. In addition, the relative viability in the assay with CAP-232 + Decitabine (first compound 0.4 µM) stood at 0.426; with CAP-232 + Decitabine (first compound 1.265 µM), 0.424; with CAP-232 + Decitabine (first compound 4 µM) it was 0.363; with CAP-232 + Decitabine (first compound 12.65 µM) it was 0.424.
For the cell line NCI-H2170, the relative viability with CAP-232 + OSI-027 (first compound 0.4 µM) is 0.658; with CAP-232 + OSI-027 (first compound 1.265 µM), 0.737; with CAP-232 + OSI-027 (first compound 4 µM), 0.777; in the assay with CAP-232 + OSI-027 (first compound 12.65 µM), 0.669; with CAP-232 + Crizotinib (first compound 0.4 µM), 1.24; with CAP-232 + Crizotinib (first compound 1.265 µM), 1.22. The relative viability stood at 1.23 with CAP-232 + Crizotinib (first compound 4 µM); 0.901 in the assay with CAP-232 + Crizotinib (first compound 12.65 µM); 0.247 with CAP-232 + Pemetrexed (first compound 0.4 µM); 0.261 with CAP-232 + Pemetrexed (first compound 1.265 µM); 0.267 with CAP-232 + Pemetrexed (first compound 4 µM); 0.244 with CAP-232 + Pemetrexed (first compound 12.65 µM). Moreover, the relative viability turned out to be 0.496 in the assay with CAP-232 + Decitabine (first compound 0.4 µM), 0.492 with CAP-232 + Decitabine (first compound 1.265 µM), 0.492 with CAP-232 + Decitabine (first compound 4 µM) and 0.486 with CAP-232 + Decitabine (first compound 12.65 µM).
With NCI-H2228, the relative viability with CAP-232 + Bortezomib (first compound 0.4 µM) worked out at 0.9; with CAP-232 + Bortezomib (first compound 1.265 µM), 0.977; with CAP-232 + Bortezomib (first compound 4 µM), 1.21; with CAP-232 + Bortezomib (first compound 12.65 µM), 0.74; in the assay with CAP-232 + OSI-027 (first compound 0.4 µM), 0.712; in the assay with CAP-232 + OSI-027 (first compound 1.265 µM), 0.494. The relative viability in the assay with CAP-232 + OSI-027 (first compound 4 µM) was found to be 0.665; with CAP-232 + OSI-027 (first compound 12.65 µM), 0.556; with CAP-232 + Crizotinib (first compound 0.4 µM) it was 0.637; with CAP-232 + Crizotinib (first compound 1.265 µM), 0.407; in the assay with CAP-232 + Crizotinib (first compound 4 µM), 0.526; in the assay with CAP-232 + Crizotinib (first compound 12.65 µM) it was 0.461. The relative viability in the assay with CAP-232 + Pemetrexed (first compound 0.4 µM) was 0.447; with CAP-232 + Pemetrexed (first compound 1.265 µM), 0.364; with CAP-232 + Pemetrexed (first compound 4 µM), 0.335; with CAP-232 + Pemetrexed (first compound 12.65 µM), 0.358.
Consider NCI-H2342, for which the relative viability is 0.565 with CAP-232 + OSI-027 (first compound 0.4 µM); 0.555 with CAP-232 + OSI-027 (first compound 1.265 µM); 0.623 with CAP-232 + OSI-027 (first compound 4 µM); 0.568 in the assay with CAP-232 + OSI-027 (first compound 12.65 µM); 0.798 with CAP-232 + Pemetrexed (first compound 0.4 µM); 0.745 with CAP-232 + Pemetrexed (first compound 1.265 µM). For the same cell line, the relative viability was found to be 0.779 in the assay with CAP-232 + Pemetrexed (first compound 4 µM); 0.835 with CAP-232 + Pemetrexed (first compound 12.65 µM); 0.714 with CAP-232 + Decitabine (first compound 0.4 µM); 0.81 in the assay with CAP-232 + Decitabine (first compound 1.265 µM); 0.736 in the assay with CAP-232 + Decitabine (first compound 4 µM); 0.666 with CAP-232 + Decitabine (first compound 12.65 µM).
SK-MES-1: the relative viability is 0.696 with CAP-232 + OSI-027 (first compound 0.4 µM); 0.557 with CAP-232 + OSI-027 (first compound 1.265 µM); 0.583 with CAP-232 + OSI-027 (first compound 4 µM); 0.264 in the assay with CAP-232 + OSI-027 (first compound 12.65 µM); 0.965 in the assay with CAP-232 + Crizotinib (first compound 0.4 µM); 0.909 with CAP-232 + Crizotinib (first compound 1.265 µM). The relative viability with CAP-232 + Crizotinib (first compound 4 µM) amounted to 0.926; with CAP-232 + Crizotinib (first compound 12.65 µM), 0.931; in the assay with CAP-232 + Pemetrexed (first compound 0.4 µM) it was 1.04; with CAP-232 + Pemetrexed (first compound 1.265 µM), 0.95; in the assay with CAP-232 + Pemetrexed (first compound 4 µM) it was 0.961; with CAP-232 + Pemetrexed (first compound 12.65 µM) it was 0.608. The relative viability with CAP-232 + Decitabine (first compound 0.4 µM) amounted to 0.452; with CAP-232 + Decitabine (first compound 1.265 µM) it was 0.344; with CAP-232 + Decitabine (first compound 4 µM), 0.384; in the assay with CAP-232 + Decitabine (first compound 12.65 µM) it was 0.274.
For the cell line SW 900, the relative viability with CAP-232 + OSI-027 (first compound 0.4 µM) was found to be 0.66; with CAP-232 + OSI-027 (first compound 1.265 µM), 0.54; in the assay with CAP-232 + OSI-027 (first compound 4 µM), 0.726; with CAP-232 + OSI-027 (first compound 12.65 µM), 0.449; with CAP-232 + Pemetrexed (first compound 0.4 µM), 0.487; in the assay with CAP-232 + Pemetrexed (first compound 1.265 µM), 0.48. The relative viability is 0.47 with CAP-232 + Pemetrexed (first compound 4 µM); 0.499 with CAP-232 + Pemetrexed (first compound 12.65 µM); 0.442 with CAP-232 + Decitabine (first compound 0.4 µM); 0.369 with CAP-232 + Decitabine (first compound 1.265 µM); 0.355 with CAP-232 + Decitabine (first compound 4 µM); 0.454 in the assay with CAP-232 + Decitabine (first compound 12.65 µM).
